Source: patent US8506930B2, “Compounds having affinity for amyloid” (Nihon Medi-Physics Co., Ltd., priority 2006, dated 2013)

What was measured:
[1] = molecular target: T1, amyloid (aggregated Aβ1-40) (Homo sapiens, UniProt P05067); assay: Measurement of binding to amyloid (radiolabelled compound, glass fiber filtration); details: amyloid 2.5-1000 nmol/L, 22° C., 3 hours
T1 construct: Aβ1-40 (Peptide Institute, INC.) was dissolved in phosphate buffer (pH 7.4); purchased Peptide Institute, INC
Protocol: (7) A relation between the amount of the Compound I-6 binding to amyloid and the amount of added amyloid was evaluated from the measurement results of (6). Unspecific binding was determined using a sample to which the Compound I-2 (non-RI labeled compound) was added to become 100 nM (at a final concentration) above in (4) (Example I-7).
(8) Using [^125I]-IMPY synthesized in the above Reference Example I-6, the same procedure as the above (2) to (6) were carried out to obtain control data (Comparative Example I-1).
A relation between the concentration of amyloid in the sample solution and the radioactive count on the glass fiber filter measured above in (6) is shown in FIG. 1-11. The radioactivity on the glass fiber was increased proportionally to the concentration (addition amount) of amyloid (Example I-7). […] Therefore, the radioactive count on the glass fiber is a value reflecting the amount of the compound attached to amyloid, and the slope of the graph which plotted the radioactive count relative to the concentration of amyloid is a value which can be an index representing the intensity of binding to amyloid.

[2] = Transferability into brain and clearance, Examples I-20 to I-21; type: in vivo, male Wistar rats; details: rats, intravenous injection, Table 1-7
Source text: Three animals were used for Experiment I-20 and Comparative Experiment I-9, and two animals were used for Experiment I-21 at the respective time points.

[3] = molecular target: T2, intracerebral amyloid (aggregated Aβ1-40 injected into amygdaloid nucleus) (Homo sapiens, UniProt P05067); assay: Confirmation of imaging of amyloid in brain (ex vivo autoradiogram), Example I-22; design: species or system male Wistar rat; details: brain slice 60 minutes after tail vein injection
T2 construct: Aβ1-40 (Peptide Institute, INC.) was dissolved in phosphate buffer (pH 7.4); purchased Peptide Institute, INC
Protocol: (§1) (1) Aβ1-40 (manufactured by Peptide Institute, INC.) was dissolved in phosphate buffer (pH 7.4) and shaken at 37° C. for 72 hours, to obtain 1 mg/mL of a suspension of aggregated Aβ (hereinafter referred to as amyloid suspension in this Example).
(§2) (2) 25 μL (corresponding to 25 μg) of the amyloid suspension was injected into an amygdaloid nucleus on one side of a male Wistar rat (7-week old). As a control, 25 μL of a phosphate buffered physiological saline solution (pH 7.4) was injected into an amygdaloid nucleus on the other side of the rat. The rats were examined 1 day after the injection of the amyloid suspension and the phosphate buffered physiological saline solution (pH 7.4).
(§3) This solution was injected into the rat through the tail vein (dosage: 0.5 mL, dosed radioactivity: 16 MBq equivalent).
(§4) (4) Brain was removed 60 minutes after the injection to prepare a brain slice of 10 μm in thickness with a microtome (type: CM3050S, manufactured by LEICA). The brain slice was exposed to an imaging plate for 20 hours, and then image analysis was carried out by use of a Bio-imaging Analyzer (type: BAS-2500; manufactured by FUJIFILM Corporation).

[4] = tested on: intracerebral amyloid (aggregated Aβ1-40 injected into amygdaloid nucleus); assay: as above; design: species or system male Wistar rat; details: brain slice 60 minutes after tail vein injection
Protocol: as §1, §2, §3, §4

[5] = Transferability into brain and clearance (2), Example I-30; type: in vivo, male Wistar rats; details: rats, intravenous injection, Table 1-10
Protocol: 0.05 mL each of these solutions was injected under thiopental anesthesia into the tail vein of respective Wistar rats (7-week old). The rats were sacrificed by bleeding from abdominal artery, and brains were removed and subjected to measurement of mass of brains and further subjected to measurement of radioactivity (hereinafter referred to as A in this Example) with a single channel analyzer (detector type: SP-20 manufactured by OHYO KOKEN KOGYO Co., Ltd.) 2, 5, 30 and 60 minutes after the injection. Also, radioactivity (hereinafter referred to as B in this Example) of the rest of the whole body was measured in the same manner as above. Using these measurement results, radioactive distribution per unit weight of brain (% ID/g) at the respective time points were calculated in accordance with the following formula (1-7).
Three animals were used for experiment at the respective time points.

[6] = molecular target: T3, intracerebral amyloid (aggregated Aβ1-42 injected into amygdaloid nucleus) (Homo sapiens, UniProt P05067); assay: Confirmation of imaging of amyloid in brain (ex vivo autoradiogram), Example I-31; design: species or system male Wistar rat; details: brain slice 60 minutes after tail vein injection
T3 construct: Aβ1-42 (Wako) was dissolved in phosphate buffer (pH 7.4); purchased Wako
Protocol: (§5) (1) Aβ1-42 (Wako) was dissolved in phosphate buffer (pH 7.4) and shaken at 37° C. for 72 hours, to obtain a 1 mg/mL suspension of aggregated Aβ (hereinafter referred to as amyloid suspension in this Example).
(§6) (2) 2.5 μL (corresponding to 25 μg) of the amyloid suspension was injected into an amygdaloid nucleus on one side of a male Wistar rat (7-week old). As a control, 2.5 μL of a phosphate buffered physiological saline solution (pH 7.4) was injected into an amygdaloid nucleus on the other side of the rat. The rats were examined 1 day after the injection of the amyloid suspension and the phosphate buffered physiological saline solution (pH 7.4).
(§7) This solution was injected under thiopental anesthesia into the rat through the tail vein (dosage: 0.5 mL, dosed radioactivity: 11-15 MBq equivalent).
as §4

[7] = tested on: intracerebral amyloid (aggregated Aβ1-42 injected into amygdaloid nucleus); assay: as above; design: species or system male Wistar rat
Protocol: as §5, §6, §7, §4

[8] = molecular target: T3, intracerebral amyloid (aggregated Aβ1-42 injected into amygdaloid nucleus); assay: Confirmation of imaging of amyloid in brain (ex vivo autoradiogram), Examples II-24 to II-25; design: species or system male Wistar rat; details: brain slice 60 minutes after tail vein injection
Protocol: as §6, §7, §4

[9] = tested on: intracerebral amyloid (aggregated Aβ1-42 injected into amygdaloid nucleus); assay: as above; design: species or system male Wistar rat; details: for accumulation of radioactivity at sites other than the site to which amyloid was injected: autoradiogram, 60 minutes after tail vein injection; for accumulation of radioactivity in amygdaloid nucleus on the side to which the physiological saline solution was injected: brain slice 60 minutes after tail vein injection
Protocol: as §6, §7, §4

[10] = Partition coefficient based on the octanol extraction method, Examples II-20 to II-21; type: physicochemical; details: octanol / 10 mmol/L phosphate buffer (pH 7.4); Table 2-6
Protocol: To 2 mL of octanol, 10 μL each of the prepared sample solution was added, and 2 mL of 10 mmol/L phosphate buffer (pH 7.4) was further added, followed by stirring for 30 seconds. After the mixture was centrifuged with a low-speed centrifuge (2000 rpm×60 min.), the octanol layer and the water layer were sampled each in an amount of 1 mL, and subjected to measurement of radioactivity count with an autowell gamma system (Type: ARC-301B, manufactured by Aloka). Using the obtained radioactivity count, log Poctanol was calculated in accordance with the equation (2-4).

[11] = Transferability into brain and clearance, Examples II-22 to II-23; type: in vivo, male Wistar rats; details: rats, intravenous injection, Table 2-7
Protocol: 0.05 mL each of the prepared sample solutions was injected under thiopental anesthesia into the tail vein of the respective Wistar rat (7-week old). The rats were sacrificed by bleeding from abdominal artery, and brains were removed and subjected to measurement of mass of brains and further subjected to measurement of radioactivity (hereinafter referred to as A in this Example) with a single channel analyzer (detector type SP-20 manufactured by OHYO KOKEN KOGYO Co., Ltd.) 2, 5, 30, and 60 minutes after the injection. Further, the radioactivity level of the rest of the whole body was measured in the same manner as above (hereinafter referred to as B in this Example). Using these measurement results, radioactive distribution per unit weight of brain (% ID/g) at the respective time points were calculated in accordance with the following formula (2-5).
(§8) Three animals were used for the experiment at the respective time points.

[12] = Partition coefficient based on HPLC; type: physicochemical; details: 50 mM triethylamine phosphate (pH 7.2)/acetonitrile=40/60; log PHPLC=0.96(log10K′HPLC)+1.59
Protocol: The partition coefficient by HPLC (hereinafter referred to as log PHPLC) was measured by the following method.
First, compounds for evaluation shown in Table 1-5 were dissolved at a concentration of 1 mg/mL in methanol containing 10% dimethylsulfoxide to prepare sample solutions. One μL of the sample solution was subjected to HPLC analysis under the following conditions to determine the elution time (t0) of the solvent and the elution time (tR) of each compound. […]
Using the obtained t0 and tR, the retention factor (hereinafter referred to as K′HPLC value) of each compound for evaluation was determined according to the following calculation formula (1-3). […]
After the individual solutions were stirred for 30 seconds, the solutions were centrifuged at 2,000 rpm for 60 minutes. 1 mL each of the octanol phase and the water phase was fractionated, and the radioactivity was measured by an autowell gamma system (manufactured by Aloka Co., Ltd.: Type ARC-301B). Based on the obtained radioactivity, log Poctanol values were calculated according to the above equation (1-2). […]
Using K′HPLC obtained for each compound for evaluation, the log PHPLC value of each compound for evaluation was determined according to the above calculation formula (1-4).

[13] = International Publication WO03/106439 pamphlet; cited from earlier work
[14] = rats, [11C]-labeled; cited from earlier work
[15] = Transferability into brain and clearance, Examples II-10 to II-11; type: in vivo, male Wistar rats; details: rats, intravenous injection, Table 2-5
Protocol: 0.05 mL each of the prepared sample solutions was injected under thiopental anesthesia into the tail vein of the rats. The rats were sacrificed by bleeding from abdominal artery, and brains were removed and subjected to measurement of mass of brains and further subjected to measurement of radioactivity (hereinafter referred to as A in this Example) with a single channel analyzer (detector type SP-20 manufactured by OHYO KOKEN KOGYO Co., Ltd.) 2, 5, 30, and 60 minutes after the injection. Further, the radioactivity level of the rest of the whole body was measured in the same manner as above (hereinafter referred to as B in this Example). Using these measurement results, radioactive distribution per unit weight of brain (% ID/g) at the respective time points were calculated in accordance with the following formula (2-3).
as §8

[16] = Partition coefficient based on the octanol extraction method, Examples I-13 to I-14; type: physicochemical; details: octanol / 10 mmol/L phosphate buffer (pH 7.4); Table 1-4
Protocol: After the mixture was centrifuged with a low-speed centrifuge (2000 rpm×60 min.), the octanol layer and the water layer were sampled each in an amount of 1 mL, and subjected to measurement of radioactivity count with an autowell gamma system (manufactured by Aloka, Type: ARC-301B). Using the obtained radioactivity count, log Poctanol was calculated in accordance with the equation (1-2).

[17] = Partition coefficient based on the octanol extraction method, Examples II-8 to II-9; type: physicochemical; details: octanol / 10 mmol/L phosphate buffer (pH 7.4); Table 2-4
Protocol: To 2 mL of octanol, 10 μL each of the prepared sample solutions was added, 2 mL of 10 mmol/L phosphate buffer (pH 7.4) was added, followed by stirring for 30 seconds. After the mixture was centrifuged with a low-speed centrifuge (2000 rpm×60 min.), the octanol layer and the water layer were sampled each in an amount of 1 mL, and subjected to measurement of radioactivity count with an autowell gamma system (Type: ARC-301B, manufactured by Aloka). Using the obtained radioactivity count, log Poctanol was calculated in accordance with the equation (2-2).

[18] = molecular target: T2, intracerebral amyloid (aggregated Aβ1-40 injected into amygdaloid nucleus); assay: Ex vivo autoradiogram of 123I-IMPY using rats of amyloid injected model, Comparative Example II-6; type: in vivo, male Wistar rat; details: brain slice 60 minutes after tail vein injection
Protocol: as §1, §6
(§9) This solution was injected under thiopental anesthesia into the rat through the tail vein (dosage: 0.5 mL, dosed radioactivity: 14.5 MBq equivalent).
as §4

[19] = tested on: intracerebral amyloid (aggregated Aβ1-40 injected into amygdaloid nucleus); assay: as above; type: in vivo, male Wistar rat; details: autoradiogram, 60 minutes after tail vein injection
Protocol: as §1, §6, §9, §4

[20] = Partition coefficient based on the octanol extraction method, Example I-29; type: physicochemical; details: octanol / 10 mmol/L phosphate buffer (pH 7.4); Table I-9
Protocol: To 2 mL of octanol, 10 μL each of the prepared sample solutions was added, and 2 mL of a 10 mmol/L phosphate buffer (pH 7.4) was further added, followed by stirring for 30 seconds.

T3 sequence (P05067 672-713): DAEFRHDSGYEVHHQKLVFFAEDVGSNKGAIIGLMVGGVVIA
T2 sequence (P05067 672-711): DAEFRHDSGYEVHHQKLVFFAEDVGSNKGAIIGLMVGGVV
T1 sequence (P05067 672-711 limits assumed): as the sequence (P05067 672-711) above

FCCCOc1ccc(-c2cn3cc([125I])ccc3n2)cc1 [Compound I-6, 2-[4′-(3″-fluoropropoxy)phenyl]-6-[^125I]iodoimidazo[1,2-a]pyridine]
slope of radioactive count on the glass fiber relative to the concentration of amyloid (index of intensity of binding to amyloid) [1]: greater than the slope for [^125I]-IMPY

FCCCOc1ccc(-c2cn3cc([123I])ccc3n2)cc1 [Compound I-7, 2-[4′-(3″-fluoropropoxy)phenyl]-6-[^123I]iodoimidazo[1,2-a]pyridine]
Radioactive distribution in brain per unit weight, After 2 min. [2]: 1.10 % ID/g
Radioactive distribution in brain per unit weight, After 5 min. [2]: 0.75 % ID/g
Radioactive distribution in brain per unit weight, After 30 min. [2]: 0.12 % ID/g
Radioactive distribution in brain per unit weight, After 60 min. [2]: 0.05 % ID/g
accumulation of radioactivity in amygdaloid nucleus on the side to which the amyloid suspension was injected [3]: marked accumulation of radioactivity
accumulation of radioactivity in amygdaloid nucleus on the side to which the physiological saline solution was injected [4]: no significant accumulation of radioactivity

FCCOc1ccc(-c2cn3cc([123I])ccc3n2)cc1 [Compound I-9, 2-[4′-(2″-fluoroethoxy)phenyl]-6-[^123I]iodoimidazo[1,2-a]pyridine]
Radioactive distribution in brain per unit weight, After 2 min. [5]: 0.72 % ID/g
Radioactive distribution in brain per unit weight, After 5 min. [5]: 0.49 % ID/g
Radioactive distribution in brain per unit weight, After 30 min. [5]: 0.07 % ID/g
Radioactive distribution in brain per unit weight, After 60 min. [5]: 0.02 % ID/g
accumulation of radioactivity in amygdaloid nucleus on the side to which the amyloid suspension was injected [6]: marked accumulation of radioactivity
accumulation of radioactivity at sites other than the sites to which amyloid was injected ([7]; autoradiogram, 60 minutes after tail vein injection): little accumulation of radioactivity
accumulation of radioactivity in amygdaloid nucleus on the side to which the physiological saline solution was injected ([7]; brain slice 60 minutes after tail vein injection): no significant accumulation of radioactivity

OCCOc1cccc(-c2cn3cc([123I])ccc3n2)c1 [Compound II-4, 2-[3′-(2″-hydroxyethoxy)phenyl]-6-[^123I]iodoimidazo[1,2-a]pyridine]
accumulation of radioactivity in amygdaloid nucleus on the side to which the amyloid suspension was injected [8]: marked accumulation of radioactivity
accumulation of radioactivity at sites other than the site to which amyloid was injected [9]: little accumulation of radioactivity
accumulation of radioactivity in amygdaloid nucleus on the side to which the physiological saline solution was injected [9]: no significant accumulation of radioactivity
logPoctanol value [10]: 2.5
Radioactive distribution in brain per unit weight, After 2 min. [11]: 0.56 % ID/g
Radioactive distribution in brain per unit weight, After 5 min. [11]: 0.28 % ID/g
Radioactive distribution in brain per unit weight, After 30 min. [11]: 0.04 % ID/g
Radioactive distribution in brain per unit weight, After 60 min. [11]: 0.01 % ID/g

OCCCOc1ccc(-c2cn3cc([123I])ccc3n2)cc1 [Compound II-6, 2-[4′-(3″-hydroxypropoxy)phenyl]-6-[^123I]iodoimidazo[1,2-a]pyridine]
accumulation of radioactivity in amygdaloid nucleus on the side to which the amyloid suspension was injected [8]: marked accumulation of radioactivity
accumulation of radioactivity at sites other than the site to which amyloid was injected [9]: little accumulation of radioactivity
accumulation of radioactivity in amygdaloid nucleus on the side to which the physiological saline solution was injected [9]: no significant accumulation of radioactivity
logPoctanol value [10]: 2.1
Radioactive distribution in brain per unit weight, After 2 min. [11]: 0.81 % ID/g
Radioactive distribution in brain per unit weight, After 5 min. [11]: 0.56 % ID/g
Radioactive distribution in brain per unit weight, After 30 min. [11]: 0.07 % ID/g
Radioactive distribution in brain per unit weight, After 60 min. [11]: 0.02 % ID/g

CN(C)c1ccc(-c2cn3cc(I)ccc3n2)cc1 [IMPY, 6-iodo-2-[4′-(N,N-dimethylamino)phenyl]imidazo[1,2-a]pyridine]
logPHPLC value [12]: 2.1
reverse mutation test result [13]: positive

CNc1ccc(/C=C/c2ccc(O)cc2)cc1 [SB-13, (E)-4-methylamino-4′-hydroxystilbene]
clearance from normal tissues [14]: it cannot be said that the clearance is sufficiently fast

CN(C)c1ccc(-c2cn3cc([123I])ccc3n2)cc1 [[^123I]-IMPY, reference compound]
Radioactive distribution in brain per unit weight, After 2 min. [2]: 1.02 % ID/g
Radioactive distribution in brain per unit weight, After 5 min. [2]: 0.99 % ID/g
Radioactive distribution in brain per unit weight, After 30 min. [2]: 0.20 % ID/g
Radioactive distribution in brain per unit weight, After 60 min. [2]: 0.08 % ID/g
Radioactive distribution in brain per unit weight, After 2 min. ([15]; 2 min.): 1.19 % ID/g
Radioactive distribution in brain per unit weight, After 5 min. ([15]; 5 min.): 0.97 % ID/g
Radioactive distribution in brain per unit weight, After 30 min. ([15]; 30 min.): 0.23 % ID/g
Radioactive distribution in brain per unit weight, After 60 min. ([15]; 60 min.): 0.09 % ID/g
logPoctanol value [16]: 2.1
logPoctanol value [17]: 1.9
accumulation of radioactivity in amygdaloid nucleus on the side to which the amyloid suspension was injected [18]: marked accumulation of radioactivity
accumulation of radioactivity where amyloid was not injected (white matter) [19]: non-specific accumulation was observed in white matter
Radioactive distribution in brain per unit weight, After 2 min. [5]: 1.19 % ID/g
Radioactive distribution in brain per unit weight, After 5 min. [5]: 0.97 % ID/g
Radioactive distribution in brain per unit weight, After 30 min. [5]: 0.23 % ID/g
Radioactive distribution in brain per unit weight, After 60 min. [5]: 0.09 % ID/g
logPoctanol value [10]: 2.1
Radioactive distribution in brain per unit weight, After 2 min. [11]: 1.19 % ID/g
Radioactive distribution in brain per unit weight, After 5 min. [11]: 0.97 % ID/g
Radioactive distribution in brain per unit weight, After 30 min. [11]: 0.23 % ID/g
Radioactive distribution in brain per unit weight, After 60 min. [11]: 0.09 % ID/g
logPoctanol value [20]: 2.1
